Counter-ions that a name gives are not always drawn. Each block holds one compound with its values, some of them ahead of it.
Key:
[1] = Serum levels following oral dosing in mice; details: methyl cellulose formulation
[2] = Serum levels following oral dosing in rats; details: methyl cellulose formulation
[3] = Serum levels following oral dosing in dogs; details: methyl cellulose formulation
[4] = Serum levels following oral dosing in monkeys; details: methyl cellulose formulation
[5] = Serum half life and tissue distribution following O.D. dosing
Aspergillus = details: SDB, geometric mean MIC and MFC
[6] = system: cytochrome P-450 liver drug metabolizing enzymes; experiment: Induction of cytochrome P-450 liver drug metabolizing enzymes, in vivo rat model; details: oral administration
Solubility in water = type: physicochemical
Procedure: (§1) Only 1-2 mg of the hydrochloride salt dissolves in 1 mL of water, and unacceptably large volumes of water would be required for delivery of an effective dose. Furthermore, only in an aqueous hydrochloric acid solution at the physiologically unacceptable pH of 1-1.5 does enough of the hydrochloride acid addition salt of the compound of formula I dissolve to provide a suitably concentrated solution useful for intravenous use.

[7] = Solubility in aqueous hydrochloric acid solution; type: physicochemical; details: only in an aqueous hydrochloric acid solution; physiologically unacceptable pH
Procedure: as §1

[8] = Solubility in aqueous lactic acid solution / pharmaceutically acceptable carriers; type: physicochemical
[9] = In vivo conversion into the alcohol of formula II

Compound: CCC(C(C)O)n1ncn(-c2ccc(N3CCN(c4ccc(OCC5COC(Cn6cncn6)(c6ccc(F)cc6F)C5)cc4)CC3)cc2)c1=O [compound of formula II, -(2 R-cis)-4-[4-[4-[4-[[-5-(2,4-Difluorophenyl)-tetrahydro-5-(1 H-1,2,4-triazol-1-ylmethyl)furan-3-yl]methoxy]phenyl]-1-piperazinyl]phenyl]-2-4-dihydro-2-[(1 S)-ethyl-2(S)-hydroxypropyl]-3 H-1,2,4-triazol-3-one]
serum levels compared to azoles of similar structure, mice [1]: consistently higher serum levels | serum levels compared to azoles of similar structure, rats [2]: consistently higher serum levels | serum levels compared to azoles of similar structure, dogs [3]: consistently higher serum levels | serum levels compared to azoles of similar structure, monkeys [4]: consistently higher serum levels | serum half lives [5]: very long serum half lives | tissue distribution [5]: good tissue distribution | in vitro antifungal activity against 37 species of Aspergillus compared to fluconazole (Aspergillus): superior antifungal in vitro activity | induction of cytochrome P-450 liver drug metabolizing enzymes [6]: not an inducer

solubility in water (Solubility in water; Hydrochloride): sparingly soluble | solubility (Solubility in water; read-out: amount of salt dissolving in 1 mL of water): 1000 to 2000 µg/mL | pH of aqueous hydrochloric acid at which enough salt dissolves to provide a suitably concentrated solution for intravenous use [7]: 1-1.5
Compound: CCC(C(C)OC(=O)CN)n1ncn(-c2ccc(N3CCN(c4ccc(OCC5COC(Cn6cncn6)(c6ccc(F)cc6F)C5)cc4)CC3)cc2)c1=O (single isomer, unassigned; (-)) [Hydrochloride]

solubility in water (Solubility in water; listed as lactic acid addition salt): water soluble | solubility in pharmaceutically acceptable carriers, especially aqueous lactic acid solutions ([8]; aqueous lactic acid solutions): surprisingly soluble | solubility in aqueous lactic acid solution at physiologically acceptable pH ([8]; pH of at least about 3 to 3.5): soluble | in vivo conversion into the corresponding alcohol of formula II [9]: readily convertible in vivo
Compound: CCC(C(C)OC(=O)CN)n1ncn(-c2ccc(N3CCN(c4ccc(OCC5COC(Cn6cncn6)(c6ccc(F)cc6F)C5)cc4)CC3)cc2)c1=O (single isomer, unassigned; (-))

Reference: patent US5883097A, “Soluble azole antifungal salt” (Schering Corporation, priority 1998, dated 1999)
